Laboratory results reported in US20220401450A1, “PEDIATRIC FORMULATIONS FOR TREATMENT OF CANCER” (CELGENE CORPORATION, priority 2019, published 2022).
Peptide text beside a SMILES is read from it.

Test: Accelerated stability study of blends: chemical compatibility of sweeteners with Compound 1B (assay potency)
Type: physicochemical
Method: The chemical compatibility between these excipients and Compound 1B was evaluated through an accelerated stability study. The formulation samples were prepared as blends, then stored at 25° C./60% RH and 40° C./75% RH for up to four weeks.
Chemical stability of the blends was evaluated both in the presence and absence of high-intensity sweeteners, and the results are summarized in Table 2.

Row | Structure (SMILES) | Chemical stability (compatibility with Compound 1B)
1 | CC1=CC(=O)[N-]S(=O)(=O)O1.[K+] [Acesulfame-K] | Compatible
2 | COC(=O)[C@H](Cc1ccccc1)NC(=O)[C@@H](N)CC(=O)O [Aspartame] (H-Asp-Phe-OMe) | Compatible
3 | O=C1NS(=O)(=O)c2ccccc21 [Saccharin] | Incompatible
4 | OC[C@H]1O[C@H](O[C@]2(CCl)O[C@H](CCl)[C@@H](O)[C@@H]2O)[C@H](O)[C@@H](O)[C@H]1Cl [Sucralose] | Compatible
